Laboratory results reported in patent US12617783B2, “Heterocyclic GLP-1R agonists” (BIOMEA FUSION, INC., priority 2024, dated 2026).

Target: T1, human GLP-1R (Homo sapiens, UniProt P43220)
T1 construct: host or cells: HEK293
Test: GLP-1R cAMP assay (Example B1a, HTRF, 30 min at room temperature)
Type: cell-based
Conditions: cAMP accumulation in HEK293 expressing human GLP-1R, no BETP, 30 min room temperature (Method B1a, compounds ID 1-609), Table 1; read-out: EC50
Procedure, shortened: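 Competitive HTRF read-out of cAMP after 30 min room-temperature stimulation, BETP absent, of human GLP-1R-HEK293 cells (1,000/well) in HEPES buffer with 500 μM IBMX and 0.1% BSA. Activation normalised to GLP-1(7-37) positive control. EC50 from 4-parameter non-linear regression.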

T1 sequence (P43220 24-463): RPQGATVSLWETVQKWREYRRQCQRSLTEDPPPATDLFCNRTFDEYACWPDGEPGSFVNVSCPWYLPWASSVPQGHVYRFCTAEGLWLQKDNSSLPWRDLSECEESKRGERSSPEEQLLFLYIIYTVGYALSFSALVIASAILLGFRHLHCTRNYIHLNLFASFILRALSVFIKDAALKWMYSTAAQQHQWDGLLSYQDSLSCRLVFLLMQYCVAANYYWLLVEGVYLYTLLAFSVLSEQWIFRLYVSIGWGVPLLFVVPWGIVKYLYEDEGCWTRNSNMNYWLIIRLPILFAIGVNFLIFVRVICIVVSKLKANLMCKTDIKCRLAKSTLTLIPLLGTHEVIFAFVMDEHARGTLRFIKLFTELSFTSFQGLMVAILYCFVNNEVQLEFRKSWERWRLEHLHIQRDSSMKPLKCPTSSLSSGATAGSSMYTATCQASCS

| Compound | EC50 [nM] |
| --- | --- |
| Cc1cc(-n2nc3c(c2-n2ccn(-c4ccc5c(cnn5C)c4F)c2=O)[C@@H]2CCC[C@H](C3)N2S(=O)(=O)c2cc3cc([C@@H]4CCOC5(CC5)C4)ccc3n2[C@]2(c3noc(=O)[nH]3)C[C@@H]2C)cc(C)c1F [Compound 603, 3-[(1R,2S)-1-[2-[[(1S,8R)-4-(4-fluoro-3,5-dimethyl-phenyl)-3-[3-(4-fluoro-1-methyl-indazol-5-yl)-2-oxo-imidazol-1-yl]-4,5,12-triazatricyclo[6.3.1.02,6]dodeca-2,5-dien-12-yl]sulfonyl]-5-[(7R)-4-oxaspiro[2.5]octan-7-yl]indol-1-yl]-2-methyl-cyclopropyl]-4H-1,2,4-oxadiazol-5-one] | ≥ 10000 |
| Cc1cc(-n2nc3c(c2-n2ccn(-c4ccc5c(c4)N(C)C(=O)C54CC4)c2=O)[C@@H]2CCC[C@H](C3)N2C(=O)c2cc3cc([C@H]4CCOC(C)(C)C4)ccc3n2[C@@]2(c3noc(=O)[nH]3)C[C@@H]2C)cc(C)c1F [Compound 545, 3-[(1S,2S)-1-[5-[(4S)-2,2-dimethyltetrahydropyran-4-yl]-2-[(1S,8R)-4-(4-fluoro-3,5-dimethyl-phenyl)-3-[3-(l′-methyl-2′-oxo-spiro[cyclopropane-1,3′-indoline]-6′-yl)-2-oxo-imidazol-1-yl]-4,5,12-triazatricyclo[6.3.1.02,6]dodeca-2,5-diene-12-carbonyl]indol-1-yl]-2-methyl-cyclopropyl]-4H-1,2,4-oxadiazol-5-one] | 307 |
| Cc1cc(-n2nc3c(c2-n2ccn(-c4ccc5nnccc5c4)c2=O)[C@@H]2CC[C@H](C3)N2C(=O)c2cc3cc([C@H]4CCOC(C)(C)C4)ccc3n2C2(c3noc(=O)[nH]3)CC2)cc(C)c1F [Compound 119, 3-[1-[2-[(1S,8R)-3-(3-cinnolin-6-yl-2-oxo-imidazol-1-yl)-4-(4-fluoro-3,5-dimethyl-phenyl)-4,5,11-triazatricyclo[6.2.1.02,6]undeca-2,5-diene-11-carbonyl]-5-[(4S)-2,2-dimethyltetrahydropyran-4-yl]indol-1-yl]cyclopropyl]-4H-1,2,4-oxadiazol-5-one] | 2280 |
| Cc1cc(-n2nc3c(c2-n2ccn(-c4ccc5c(cnn5C)c4F)c2=O)[C@H]2CC[C@@H](C3)N2C(=O)c2cc3cc([C@H]4CCOC(C)(C)C4)ccc3n2[C@@]2(c3noc(=O)[nH]3)C[C@@H]2C)cc(C)c1F [Compound 35, 3-((1S,2S)-1-(5-((S)-2,2-dimethyltetrahydro-2H-pyran-4-yl)-2-((4R,7S)-3-(3-(4-fluoro-1-methyl-1H-indazol-5-yl)-2-oxo-2,3-dihydro-1H-imidazol-1-yl)-2-(4-fluoro-3,5-dimethylphenyl)-2,4,5,6,7,8-hexahydro-4,7-epiminocyclohepta [c]pyrazole-9-carbonyl)-1H-indol-1-yl)-2-methylcyclopropyl)-1,2,4-oxadiazol-5 (4H)-one] | ≥ 100000 |
| Cc1cc(-n2nc3c(c2-n2ccn(-c4ccc5c(cnn5C)c4F)c2=O)[C@@H]2CC[C@H](C3)N2C(=O)c2cc3cc([C@H]4CCOC5(CC5)C4)ccc3n2[C@]2(c3noc(=O)[nH]3)C[C@@H]2C)cc(C)c1F [Compound 528, 3-[(1R,2S)-1-[2-[(1S,8R)-4-(4-fluoro-3,5-dimethyl-phenyl)-3-[3-(4-fluoro-1-methyl-indazol-5-yl)-2-oxo-imidazol-1-yl]-4,5,11-triazatricyclo[6.2.1.02,6]undeca-2,5-diene-11-carbonyl]-5-[(7S)-4-oxaspiro[2.5]octan-7-yl]indol-1-yl]-2-methyl-cyclopropyl]-4H-1,2,4-oxadiazol-5-one] | 1440 |
| Cc1cc(-n2nc3c(c2-n2ccn(-c4ccc5c(cnn5C)c4F)c2=O)[C@H](C)N(C(=O)c2cc4cc([C@H]5CCOC(C)(C)C5)ccc4n2[C@@]2(c4noc(=O)[nH]4)C[C@@H]2C)CCC3)cc(C)c1F [Compound 518, 3-[(1S,2S)-1-[5-[(4S)-2,2-dimethyltetrahydropyran-4-yl]-2-[(4S)-2-(4-fluoro-3,5-dimethyl-phenyl)-3-[3-(4-fluoro-1-methyl-indazol-5-yl)-2-oxo-imidazol-1-yl]-4-methyl-4,6,7,8-tetrahydropyrazolo[4,3-c]azepine-5-carbonyl]indol-1-yl]-2-methyl-cyclopropyl]-4H-1,2,4-oxadiazol-5-one] | 73.5 |

Continued, values first:

| EC50 [nM] | Compound |
| --- | --- |
| ≥ 10000 | Cc1cc(-n2nc3c(c2-n2ccn(-c4ccc5c(cnn5C)c4F)c2=O)[C@@H]2CCC[C@H](C3)N2S(=O)(=O)c2cc3cc([C@H]4CCOC5(CC5)C4)ccc3n2[C@@]2(c3noc(=O)[nH]3)C[C@@H]2C)cc(C)c1F [Compound 608, 3-[(1S,2S)-1-[2-[[(1S,8R)-4-(4-fluoro-3,5-dimethyl-phenyl)-3-[3-(4-fluoro-1-methyl-indazol-5-yl)-2-oxo-imidazol-1-yl]-4,5,12-triazatricyclo[6.3.1.02,6]dodeca-2,5-dien-12-yl]sulfonyl]-5-[(7S)-4-oxaspiro[2.5]octan-7-yl]indol-1-yl]-2-methyl-cyclopropyl]-4H-1,2,4-oxadiazol-5-one] |
| ≥ 10000 | Cc1cc(-n2nc3c(c2-n2ccn(-c4ccc5c(cnn5C)c4F)c2=O)CN(S(=O)(=O)c2cc4cc(C5CCOC(C)(C)C5)ccc4n2[C@@]2(c4noc(=O)[nH]4)C[C@@H]2C)CCC3)cc(C)c1F (stereo partly drawn) [Compound 508, 3-[(1S,2S)-1-[5-(2,2-dimethyltetrahydropyran-4-yl)-2-[[2-(4-fluoro-3,5-dimethyl-phenyl)-3-[3-(4-fluoro-1-methyl-indazol-5-yl)-2-oxo-imidazol-1-yl]-4,6,7,8-tetrahydropyrazolo[4,3-c]azepin-5-yl]sulfonyl]indol-1-yl]-2-methyl-cyclopropyl]-4H-1,2,4-oxadiazol-5-one] |
| ≥ 10000 | Cc1cc(-n2nc3c(c2-n2ccn(-c4ccc5c(cnn5C)c4F)c2=O)CN(C(=O)c2cc4cc([C@H]5CCOC(C)(C)C5)ccc4n2[C@@]2(c4noc(=O)[nH]4)C[C@@H]2C)[C@@H](C)CC3)cc(C)c1F [Compound 601, 3-[(1S,2S)-1-[5-[(4S)-2,2-dimethyltetrahydropyran-4-yl]-2-[(6S)-2-(4-fluoro-3,5-dimethyl-phenyl)-3-[3-(4-fluoro-1-methyl-indazol-5-yl)-2-oxo-imidazol-1-yl]-6-methyl-4,6,7,8-tetrahydropyrazolo[4,3-c]azepine-5-carbonyl]indol-1-yl]-2-methyl-cyclopropyl]-4H-1,2,4-oxadiazol-5-one] |
| 12.2 | Cc1cc(-n2nc3c(c2-n2ccn(-c4ccn5c(cc(=O)n5C)c4F)c2=O)[C@@H]2CC[C@H](C3)N2C(=O)c2cc3cc([C@H]4CCOC(C)(C)C4)ccc3n2[C@@]2(c3noc(=O)[nH]3)C[C@@H]2C)cc(C)c1F [Compound 429, 3-((1S,2S)-1-(5-((S)-2,2-dimethyltetrahydro-2H-pyran-4-yl)-2-((4S,7R)-3-(3-(4-fluoro-1-methyl-2-oxo-1,2-dihydropyrazolo[1,5-a]pyridin-5-yl)-2-oxo-2,3-dihydro-1H-imidazol-1-yl)-2-(4-fluoro-3,5-dimethylphenyl)-2,4,5,6,7,8-hexahydro-4,7-epiminocyclohepta [c]pyrazole-9-carbonyl)-1H-indol-1-yl)-2-methylcyclopropyl)-1,2,4-oxadiazol-5(4H)-one] |
| 167 | Cc1cc(-n2nc3c(c2-n2ccn(-c4ccc5c(cnn5C)c4F)c2=O)[C@@H]2CC[C@H](C3)N2C(=O)c2cc3cc(N4CCOC(C)(C)C4)ccc3n2[C@@]2(c3noc(=O)[nH]3)C[C@@H]2C)cc(C)c1F [Compound 229, 3-((1S,2S)-1-(5-(2,2-dimethylmorpholino)-2-((4S,7R)-3-(3-(4-fluoro-1-methyl-1H-indazol-5-yl)-2-oxo-2,3-dihydro-1H-imidazol-1-yl)-2-(4-fluoro-3,5-dimethylphenyl)-2,4,5,6,7,8-hexahydro-4,7-epiminocyclohepta [c]pyrazole-9-carbonyl)-1H-indol-1-yl)-2-methylcyclopropyl)-1,2,4-oxadiazol-5 (4H)-one] |
| 452 | Cc1cc(-n2nc3c(c2-n2ccn(-c4ccc5c(cnn5C)c4F)c2=O)[C@@H]2CC[C@H](C3)N2C(=O)c2cc3cc([C@H]4CCOC(C)(C)C4)ccc3n2C2(c3nnn[nH]3)CC2)cc(C)c1F [Compound 118, 1-((4S,7R)-9-(1-(1-(1H-tetrazol-5-yl)cyclopropyl)-5-((S)-2,2-dimethyltetrahydro-2H-pyran-4-yl)-1H-indole-2-carbonyl)-2-(4-fluoro-3,5-dimethylphenyl)-2,4,5,6,7,8-hexahydro-4,7-epiminocyclohepta [c]pyrazol-3-yl)-3-(4-fluoro-1-methyl-1H-indazol-5-yl)-1H-imidazol-2 (3H)-one] |
| 459 | Cc1cc(-n2nc3c(c2-n2ccn(-c4cc(F)c5c(cnn5C)c4F)c2=O)[C@@H]2CC[C@H](C3)N2C(=O)c2cc3cc([C@H]4CCOC(C)(C)C4)ccc3n2[C@@]2(c3noc(=O)[nH]3)C[C@@H]2C)cc(C)c1F [Compound 235, 3-[(1S,2S)-1-[2-[(1S,8R)-3-[3-(4,7-difluoro-1-methyl-indazol-5-yl)-2-oxo-imidazol-1-yl]-4-(4-fluoro-3,5-dimethyl-phenyl)-4,5,11-triazatricyclo[6.2.1.02,6]undeca-2,5-diene-11-carbonyl]-5-[(4S)-2,2-dimethyltetrahydropyran-4-yl]indol-1-yl]-2-methyl-cyclopropyl]-4H-1,2,4-oxadiazol-5-one] |
| ≥ 10000 | Cc1cc(-n2nc3c(c2-n2ccn(-c4ccc5c(cnn5C)c4F)c2=O)[C@H]2CC[C@@H](C3)N2C(=O)c2cc3cc([C@H]4CCOC5(CC5)C4)ccc3n2[C@]2(c3noc(=O)[nH]3)C[C@H]2C)cc(C)c1F [Compound 520, 3-[(1R,2R)-1-[2-[(1R,8S)-4-(4-fluoro-3,5-dimethyl-phenyl)-3-[3-(4-fluoro-1-methyl-indazol-5-yl)-2-oxo-imidazol-1-yl]-4,5,11-triazatricyclo[6.2.1.02,6]undeca-2,5-diene-11-carbonyl]-5-[(7S)-4-oxaspiro[2.5]octan-7-yl]indol-1-yl]-2-methyl-cyclopropyl]-4H-1,2,4-oxadiazol-5-one] |

Same assay, conditions: text to Table 1d, bridge atoms configured out of the plane or toward the reader

| Compound | potency |
| --- | --- |
| Cc1cc(-n2nc3c(c2-n2ccn(-c4ccc5c(cnn5C)c4F)c2=O)[C@H]2CC[C@@H](C3)N2C(=O)c2cc3cc([C@H]4CCOC(C)(C)C4)ccc3n2[C@@]2(c3noc(=O)[nH]3)C[C@@H]2C)cc(C)c1F [Compound 35, 3-((1S,2S)-1-(5-((S)-2,2-dimethyltetrahydro-2H-pyran-4-yl)-2-((4R,7S)-3-(3-(4-fluoro-1-methyl-1H-indazol-5-yl)-2-oxo-2,3-dihydro-1H-imidazol-1-yl)-2-(4-fluoro-3,5-dimethylphenyl)-2,4,5,6,7,8-hexahydro-4,7-epiminocyclohepta [c]pyrazole-9-carbonyl)-1H-indol-1-yl)-2-methylcyclopropyl)-1,2,4-oxadiazol-5 (4H)-one] | little or no potency |
